# Tests used:
# [1] = test system: skin of hairless mice (Hoes: HR-1); experiment: Ultraviolet B irradiated hairless mouse skin, external application, histology (hematoxylin and eosin); type: in vivo
# Protocol: Ten 8-weeks old female hairless mice (Hoes: HR-1) were previously bred for 1 week. Five mice (mouse A1, mouse B1, mouse C1, mouse D1, mouse E1) were irradiated at the back with ultraviolet B (UV) of 300 mJ (about 3 MED (minimal erythema dose)), and five mice (mouse A2, mouse B2, mouse C2, mouse D2, mouse E2) were not irradiated with ultraviolet ray. Immediately after irradiation with ultraviolet ray and 24 hours after irradiation with ultraviolet ray, leptomycin B was administered by externally applying a solution of a concentration of 10 μg/ml (20 μM) to mouse B1 and mouse B2, a solution of a concentration of 1 μg/ml (2 μM) to mouse C1 and mouse C2, a solution of a concentration of 100 ng/ml (200 nM) to mouse D1 and mouse D2 and a solution of a concentration of 10 ng/ml (20 nM) to mouse E1 and mouse E2, each in an amount of 0.1 ml by a brush, as a solution containing leptomycin B dissolved in 70% ethanol. To mouse A1 and mouse A2, about 0.1 ml of 70% ethanol was applied by a brush. Then, skins were collected from mouse A1 to mouse E1 irradiated with ultraviolet ray 48 hours after irradiation and mouse A2 to mouse E2 not irradiated with ultraviolet ray. The collected skins were fixed with formalin and embedded in paraffin, then, the slices were stained with hematoxylin and eosin. Slices of skins collected from mouse A1, mouse B1, mouse C1, mouse D1 and mouse E1 and stained and slices of skins collected from mouse A2, mouse B2, mouse C2, mouse D2 and mouse E2 and stained were observed by ECLIPSE E1000M optical microscope (manufactured by NIKON), and the results are shown in FIG. 5. In FIG. 5, A1 to E1 correspond to slices of skins collected from mouse A1 to mouse E1 and stained, respectively, and A2 to E2 correspond to slices of skins collected from mouse A2 to mouse E2 and stained, respectively, and the length of a bar indicates 100 μm.
# [2] = test system: MMP-9 promoter sequence; experiment: Measurement of MMP-9 promoter transcription activity by luciferase assay in human foreskin keratinocytes; type: cell-based; settings: 10 nM LMB; for transcription activity of MMP-9: 24 hours; for Promoter activity suppressed to (fraction of no LMB addition): vector-1 containing KRE-M9 (−73 to +16)
# Protocol: A foreskin of a neonate was treated at 4° C. for 16 hours by a disperse having a casein decomposition activity of 25.0 caseinolytic units/ml. Epidermal was peeled from dermis using a forceps, then, the epidermal was treated with 0.05% trypsin for 5 minutes. The separated human foreskin keratinocytes (HFKs) were allowed to incubate at 37° C. in a 24-well plate having a keratinocyte-SFM medium (manufactured by Life Technologies) containing 0.09 mM Ca^+, and sub-cultured over three generations.
# A −73 to +16 base sequence containing KRE-M9 of an MMP-9 promoter sequence and a −56 to +16 base sequence containing no KRE-M9 were inserted into pGL3-basic vector (manufactured by Promega) which is a luciferase expression vector containing a luciferase gene according to a method of Kobayashi et al. (Kobayashi et al. (2001) EMBO Rep. 2, 604 to 608), to prepare vector-1 and vector-2.
# Using the vector-1 and vector-2 and Fugene 6 (manufactured by Roche) which is a reagent for gene introduction, a vector-1 solution and a vector-2 solution each having a DNA concentration of 3 μg/1 ml were prepared, respectively. Then, the vector solution 1 was added to solutions in 12 wells and the vector solution 2 was added to solutions in the remaining 12 wells each at 37° C., of HFKs culture solutions in the 24-well plates obtained in <Culturing of human epidermal keratinocyte> and gene introduction was performed, further, 10 nM LMB was added to solutions in 6 wells to give a 6-well LMB added plate 1 and LMB was not added to solutions in the remaining 6 wells to give a 6-well LMB no-addition plate 1, of the 12 wells obtained by addition of the vector-1 solution, and 10 nM LMB was added to solutions in 6 wells to give a 6-well LMB added plate 2 and LMB was not added to solutions in the remaining 6 wells to give a 6-well LMB no-addition plate 2, of the 12 wells obtained by addition of the vector-2 solution, then, they were allowed to stand still for 3 hours. Gene introduction of a luciferase gene effected as described above induces the production of MMP-9 and the production of luciferase, and by measuring the light emitting intensity in a light emitting reaction by luciferase by a micro press counter, the production of MMP-9 can be monitored.
# Measurement of the transcription activity was conducted by a luciferase assay. The activity of luciferase was measured by Luciferase assay system (manufactured by Promega). As a micro press counter, Microbeta (manufactured by Perkin-Elmer) was used. In this measurement, the total transcription activity after 12 hours was measured using 3 wells among 6 wells, further, the total transcription activity after 24 hours was measured using the remaining 3 wells, each using the 6-well LMB added plate 1, 6-well LMB no-addition plate 1, 6-well LMB added plate 2 and 6-well LMB no-addition plate 2. […] The standard deviation is shown by error bar. […]
# [3] = test system: MMP-9; experiment: Detection of MMP-2 and MMP-9 by gelatin zymography in conditioned media of cultured human foreskin keratinocytes; type: cell-based; settings: HFKs; for concentration of LMB in the medium at which the production of MMP-9 is inhibited: 24 hours
# Protocol: A foreskin of a neonate was treated at 4° C. for 16 hours by a disperse having a casein decomposition activity of 25.0 caseinolytic units/ml. Epidermal was peeled from dermis using a forceps, then, the epidermal was treated with 0.05% trypsin for 5 minutes. The separated human foreskin keratinocytes (HFKs) were allowed to incubate at 37° C. in a plate having a keratinocyte-SFM medium (manufactured by Invitrogen), and sub-cultured over three generations. Then, into four plates obtained by sub-culturing human foreskin keratinocytes (HFKs) over three generations, LMB was added so that the concentrations in the medium were 0 nM, 0.4 nM, 2 nM and 10 nM, respectively, further, allowed to incubate at 37° C. for 24 hours. Then, four conditioned media of the keratinocyte-SFM medium were collected from the four plates, and stored at −30° C. until use in the following detection of MMP-2 and MMP-9 by a gelatin zymography method.
# Prior to detection of MMP-2 and MMP-9 by a gelatin zymography method, four conditioned media collected in <Culturing of human epidermal keratinocyte cell> were all allowed to incubate at 35° C. for 1 hour. Then, the above-mentioned conditioned media were dissolved in a solution of pH 7.4 containing 0.05 M Tris-HCl, 5 mM CaCl2, 1% SDS (sodium dodecyl-sulfate) and 5% glycerol, respectively, and the solutions were used as samples for a gelatin zymography method. MMP-2 and MMP-9 were separated from the samples by an SDS-PAGE method using 7.5% polyacrylamide gel containing 0.5% gelatin. After separation by an SDS-PAGE method, the separated gel was washed with a solution containing 2.5% Triton X-100 for 1 hour, to remove SDS. For allowing MMP-2 and MMP-9 separated in the separated gel to decompose gelatin in the separated gel, the separated gel was allowed to incubate at 35° C. for a given time in a buffer solution for reaction (standard conditions: 0.05 M Tris-HCl (pH 7.4)/0.15 M NaCl/5 MM CaCl2/0.02% NaN3). Staining of the separated gel was conducted using a staining solution containing 0.1% Amideblack B-10, and decolorization was conducted using a decolorization solution containing 10 vol % of acetic acid and 30 vol % of methanol.
# (§1) Culturing of a human epidermal keratinocyte and detection of MMP-2 and MMP-9 by a gelatin zymography method were conducted by the same manner as in Example 1 except that LMB was added into four plates obtained by sub-culturing human foreskin keratinocytes (HFKS) over three generations, so that the concentrations in the medium were 0 nM, 0.4 nM, 2 nM and 10 nM, respectively, and a calcium chloride aqueous solution was added so that the four concentrations of Ca^+ in the medium were all 1.5 mM, instead of adding LMB into four plates obtained by sub-culturing human foreskin keratinocytes (HFKs) over three generations, so that the concentrations in the medium were 0 nM, 0.4 nM, 2 nM and 10 nM, respectively, in culturing of human epidermal keratinocyte.
# as §1, with “(HFKs)” for “(HFKS)”, “TGF-β” for “a calcium chloride aqueous solution”, “TGF-β” for “Ca^+”, “1 ng/ml,” for “1.5 mM,”, “keratinocytes. […]” for “keratinocyte.”
# [4] = test system: P388 cell, Lewis Landa carcinoma cell, B16 melanoma cell, Erich carcinoma cell; settings: tumor cells transplanted to mouse; anti-tumor agent containing leptomycin B, parenteral or oral; cited from earlier work
# [5] = test system: mRNA of human MMP-9 gene; experiment: Detection of mRNA of human MMP-9 gene and human GAPDH gene by RT-PCR in human foreskin keratinocytes; type: cell-based; settings: 10 nM LMB
# Protocol: A foreskin of a neonate was treated at 4° C. for 16 hours by a disperse having a casein decomposition activity of 25.0 caseinolytic units/ml. Epidermal was peeled from dermis using a forceps, then, the epidermal was treated with 0.05% trypsin for 5 minutes. The separated human foreskin keratinocytes (HFKs) were allowed to incubate at 37° C. in a plate having a keratinocyte-SFM medium (manufactured by Invitrogen), and sub-cultured over three generations. Then, into two plates obtained by sub-culturing human foreskin keratinocytes (HFKS) over three generations, LMB was added so that the concentrations in the medium were 0 nM and 10 nM, respectively, further, allowed to incubate at 37° C. for 24 hours.
# Extraction of all RNAs from cultured human foreskin keratinocytes (HFKs) was conducted according to a method of Wachi et al. (Wachi et al. (1995) FEBS Lett. 36B, 215-219), and the extracted all RNAs were stored at −80° C. in the form of solution having a concentration of 1 μg/ml. A RT-PCR method was conducted using TaKaRa RNA PCR kit (manufactured by TaKaRa). For amplifying 277 base pairs of cDNA for human MMP-9, a sense primer (SEQ ID No. 1) was used for the 5′ end situated at 116 to 136 base pairs, and an antisense primer (SEQ ID No. 2) was used for the 3′ end situated at 372 to 392 base pairs. For amplifying 478 base pairs of cDNA for human GAPDH, a sense primer (SEQ ID No. 3) was used for the 5′ end situated at 547 to 566 base pairs, and an antisense primer (SEQ ID No. 4) was used for the 3′ end situated at 1005 to 1024 base pairs. Reverse transcription of RNA was conducted by incubating at 42° C. for 1 hour. Incubation in PCR of cDNA obtained by reverse transcription was conducted according to the following temperature profile. Namely, for every one cycle, modification of cDNA was conducted at 94° C. for 2 minutes, annealing of a primer was conducted at 60° C. for 30 seconds, and synthesis of a DNA chain by a DNA polymerase was conducted at 72° C. for 1 minute. A solution obtained after 30 cycles was separated, and electrophoresis was conducted using an agarose gel containing ethidium bromide, and the resulted band was observed under ultraviolet ray.
# Culturing of a human epidermal keratinocyte and detection of mRNA of a human MMP-9 gene and mRNA of a human GAPDH gene by a RT-PCR method were conducted by the same manner as in Example 6 except that LMB was added into two plates obtained by sub-culturing human foreskin keratinocytes (HFKs) over three generations, so that the concentrations in the medium were 0 nM and 10 nM, respectively, and a calcium chloride aqueous solution was added so that the two concentrations of Ca^+ in the medium were all 1.5 mM, instead of adding LMB into two plates obtained by sub-culturing human foreskin keratinocytes (HFKs) over three generations, so that the concentrations in the medium were 0 nM and 10 nM, respectively, in culturing of human epidermal keratinocytes. […]
# [6] = UVB 300 mJ irradiated mice B1 to E1, external application 10 μg/ml to 10 ng/ml in 70% ethanol, 0.1 ml, at 0 and 24 hours, skin at 48 hours
smiles,measurement,setting,value
"CCC(=C/[C@H](C)C/C=C/C(C)=C/[C@@H](C)C(=O)[C@@H](C)[C@H](O)[C@@H](C)C/C(C)=C/C(=O)O)/C=C/[C@@H]1OC(=O)C=C[C@@H]1C [LMB, Leptomycin B]",inflammatory cell infiltration in dermis and subcutaneous tissue,[1]; [6],suppressed
same,keratinization of epidermal,[1]; [6],normal keratinization is manifested in epidermal in a concentration-dependent manner
same,change of skin not irradiated with ultraviolet ray,"[1]; mice B2 to E2 not irradiated, external application 10 μg/ml to 10 ng/ml in 70% ethanol",significant change was not found
same,transcription activity of MMP-9,"[2]; base sequence 1 (−80 to +16, KRE-M9 and TRE), FIG. 4 (A)",suppressed
same,transcription activity of MMP-9,"[2]; base sequence 2 (4-base substitution of KRE-M9 in base sequence 1), FIG. 4 (A)",suppressed
same,transcription activity of MMP-9,"[2]; base sequence 6 (base substitution of both KRE-M9 and TRE), FIG. 4 (B)",suppressed
same,Promoter activity suppressed to (fraction of no LMB addition),[2]; 12 hours after gene introduction,about one-fifth
same,Promoter activity suppressed to (fraction of no LMB addition),[2]; 24 hours after gene introduction,about one-seventh
same,specificity of inhibition of the production of MMP-9 as compared with MMP-2,"[3]; gelatin zymography, FIG. 1",inhibits the production of MMP-9 more specifically as compared with MMP-2
same,concentration of LMB in the medium at which the production of MMP-9 is inhibited,"[3]; stimulating differentiation by TGF-β 1 ng/ml, FIG. 1 (C)",≥ 2 nM
same,concentration of LMB in the medium at which the production of MMP-9 is inhibited,"[3]; stimulating differentiation by calcium at a high concentration (1.5 mM), FIG. 1 (B)",≥ 2 nM
same,concentration of LMB in the medium at which the production of MMP-9 is inhibited,"[3]; stimulating inflammation by IL-1α 10^−10 M, FIG. 1 (E)",≥ 2 nM
same,concentration of LMB in the medium at which the production of MMP-9 is inhibited,"[3]; stimulating inflammation by TNF-α 10 ng/ml, FIG. 1 (D)",≥ 2 nM
same,concentration of LMB in the medium at which the production of MMP-9 is inhibited,"[3]; under no stimulation, FIG. 1 (A)",≥ 2 nM
same,anti-tumor action,[4],strong anti-tumor action
same,production of MMP-9 (mRNA) as compared with GAPDH,"[5]; stimulation with IL-1α 10^−10 M, Sample 9 and 10 in FIG. 2",inhibited
same,production of MMP-9 (mRNA) as compared with GAPDH,"[5]; stimulation with TGF-β 1 ng/ml, Sample 5 and 6 in FIG. 2",inhibited
same,production of MMP-9 (mRNA) as compared with GAPDH,"[5]; stimulation with TNF-α 10 ng/ml, Sample 7 and 8 in FIG. 2",inhibited
same,production of MMP-9 (mRNA) as compared with GAPDH,"[5]; stimulation with calcium at a high concentration (1.5 mM), Sample 3 and 4 in FIG. 2",inhibited
same,production of MMP-9 (mRNA) as compared with GAPDH,"[5]; under no stimulation, 24 hours, Sample 1 and 2 in FIG. 2",inhibited

# Reference: patent publication US20080119558A1, “Drug for Inhibiting Production of Matrix Metalloprotease-9” (Japan Science And Technology Agency, priority 2002, published 2008)
